The source of these data is the OligoGym collection.

Oligonucleotides are written 5' to 3', each unit as a sugar letter and its base; * is a phosphorothioate linkage, no mark a phosphodiester; rarer units and linkages stand in square brackets, end groups in braces. Plain capitals give the bases only. d = 2'-deoxy (DNA); r = 2'-OH (RNA)
Further: test concentration or dose not given here.

This data set concerns the target MRFAP1. Nature of the data set: reporter assay of Huesken 2005. As to conditions: siRNA. (A reporter such as luciferase makes a cellular process visible.)
In the case of “sense rArCrGrCrArGrUrGrGrArGrCrUrGrGrCrGrGrAdTdT / antisense rUrCrCrGrCrCrArGrCrUrCrCrArCrUrGrCrGrUdCdC”, the normalised inhibition (eCFP-eYFP dual reporter) worked out at 76.4%.

Turning to “sense rCrCrUrGrCrArArUrGrGrArCrCrCrArArArArCdTdT / antisense rGrUrUrUrUrGrGrGrUrCrCrArUrUrGrCrArGrGdTdT”, the normalised inhibition (eCFP-eYFP dual reporter) came to 86.2%.

Consider “sense rGrGrArUrUrGrUrArUrUrGrUrUrUrCrUrArUrGdTdT / antisense rCrArUrArGrArArArCrArArUrArCrArArUrCrCdTdC”, for which the normalised inhibition (eCFP-eYFP dual reporter) worked out at 93.3%.

As for “sense rUrGrCrArGrCrUrCrGrUrGrCrGrGrCrGrGrArUdTdT / antisense rArUrCrCrGrCrCrGrCrArCrGrArGrCrUrGrCrAdCdC”, the normalised inhibition (eCFP-eYFP dual reporter) came out at 33.7%.

“sense rArCrUrUrCrGrArGrCrArGrUrUrUrCrUrGrCrUdTdT / antisense rArGrCrArGrArArArCrUrGrCrUrCrGrArArGrUdCdC”: the normalised inhibition (eCFP-eYFP dual reporter) is 51.4%.

Consider “sense rArCrUrGrArGrArCrUrUrGrGrArGrUrUrGrGrAdTdT / antisense rUrCrCrArArCrUrCrCrArArGrUrCrUrCrArGrUdGdT”, for which the normalised inhibition (eCFP-eYFP dual reporter) turned out to be 88.7%.

In the case of “sense rArGrGrGrCrGrGrArGrArArGrGrCrCrGrArCrGdTdT / antisense rCrGrUrCrGrGrCrCrUrUrCrUrCrCrGrCrCrCrUdGdG”, the normalised inhibition (eCFP-eYFP dual reporter) came out at 23.9%.

Regarding “sense rGrArCrUrUrCrArUrCrUrGrGrGrArCrUrGrUrGdTdT / antisense rCrArCrArGrUrCrCrCrArGrArUrGrArArGrUrCdTdG”, the normalised inhibition (eCFP-eYFP dual reporter) was found to be 82.4%.

As to “sense rArArGrCrArGrCrGrGrArGrArUrGrCrGrGrCrCdTdT / antisense rGrGrCrCrGrCrArUrCrUrCrCrGrCrUrGrCrUrUdTdG”, the normalised inhibition (eCFP-eYFP dual reporter) is 42.8%.

On to “sense rCrUrGrArCrArCrUrArCrGrUrUrUrCrUrGrCrUdTdT / antisense rArGrCrArGrArArArCrGrUrArGrUrGrUrCrArGdTdG”, for which the normalised inhibition (eCFP-eYFP dual reporter) was 99.3%.

On to “sense rCrUrUrCrGrArGrCrArGrUrUrUrCrUrGrCrUrGdTdT / antisense rCrArGrCrArGrArArArCrUrGrCrUrCrGrArArGdTdC”, for which the normalised inhibition (eCFP-eYFP dual reporter) was determined as 59.9%.

Take “sense rUrCrGrGrArGrGrArUrUrGrUrArUrUrGrUrUrUdTdT / antisense rArArArCrArArUrArCrArArUrCrCrUrCrCrGrAdCdC”: the normalised inhibition (eCFP-eYFP dual reporter) came out at 54.7%.

As to “sense rUrCrUrGrGrUrUrGrArGrUrGrArUrGrGrCrGrAdTdT / antisense rUrCrGrCrCrArUrCrArCrUrCrArArCrCrArGrAdAdT”, the normalised inhibition (eCFP-eYFP dual reporter) was 75.7%.

For “sense rArGrGrUrCrArArArArCrCrCrUrUrArCrCrArUdTdT / antisense rArUrGrGrUrArArGrGrGrUrUrUrUrGrArCrCrUdCdA”, the normalised inhibition (eCFP-eYFP dual reporter) worked out at 85.7%.

Turning to “sense rUrUrGrArUrUrUrGrGrArArArArUrGrCrGrCrUdTdT / antisense rArGrCrGrCrArUrUrUrUrCrCrArArArUrCrArAdAdG”, the normalised inhibition (eCFP-eYFP dual reporter) turned out to be 68.1%.

As for “sense rGrArGrUrGrUrCrGrUrGrCrArGrArCrArArGrCdTdT / antisense rGrCrUrUrGrUrCrUrGrCrArCrGrArCrArCrUrCdAdG”, the normalised inhibition (eCFP-eYFP dual reporter) is 64.8%.

For the substance “sense rArUrCrCrUrUrGrCrArArUrArCrCrCrUrUrUrGdTdT / antisense rCrArArArGrGrGrUrArUrUrGrCrArArGrGrArUdCdT”, the normalised inhibition (eCFP-eYFP dual reporter) was 66.3%.

As for “sense rGrArGrArGrCrCrUrUrUrGrUrUrUrUrCrCrUrUdTdT / antisense rArArGrGrArArArArCrArArArGrGrCrUrCrUrCdTdG”, the normalised inhibition (eCFP-eYFP dual reporter) turned out to be 106%.

With “sense rCrUrUrGrGrArGrUrUrGrGrArGrCrUrCrArCrCdTdT / antisense rGrGrUrGrArGrCrUrCrCrArArCrUrCrCrArArGdTdC”, the normalised inhibition (eCFP-eYFP dual reporter) stood at 55.2%.
